In patent US20050197372A1 (priority 2002, published 2005):

Key:
[1] = system: human platelets (platelet-rich plasma); experiment: Platelet-rich plasma aggregation induced by 5 μM ADP; type: cell-based; details: for Platelet rich plasma aggregation induced by 5 μM ADP: 60 minutes at 37° C., baseline 75 ± 8
Protocol: (§1) None of them received aspirin or any other anti-platelet agents. All subjects underwent blood sampling after at least 30 minutes of rest and 2 or more hours of fasting. Blood was drawn between 8 and 10 a.m. in order to avoid any diurnal influence and sampled from an antecubital vein using a 21-gauge butterfly needle containing 3.8% sodium citrate (1:9 volume) after having discarded the first 1.5 ml of free running blood. Eleven Vacutainer tubes (4.5 ml) were collected for a total of 49 ml of whole blood-citrate mixture from each study participant. One tube was kept as an internal control and was incubated with buffer solution. […] To avoid possible observer bias, blood samples were coded and blinded. Sampling procedures, and platelet studies were performed by individuals unaware of the protocol.
The citrate and whole blood mixture were centrifuged at 1200 g for 5 minutes in order to obtain platelet-rich plasma (PRP) which was kept at room temperature for use within 1 hour. Platelet counts were determined for each PRP sample with a Coulter Counter ZM (Coulter Co., Hialeah, Fla.). Platelet numbers were adjusted to 3.50×10 ^8/ml with homologous platelet-poor plasma. Platelet aggregation (PA) was induced by 5 μM ADP, and 5 μM epinephrine. All agonists were obtained from Chronolog Corporation (Havertown, Pa.). Aggregation studies were performed using a 4 channel Chronolog Lumi-Aggregometer (model 560-Ca). Aggregation was expressed as the maximum percentage of light transmittance change (% max) from the baseline at the end of the recording time, using platelet-poor plasma as a reference. Aggregation curves were recorded for 6 minutes and analyzed according to internationally established standards. Ruggeri Z M, Semin Hemat 1994; 31: 229-239.

[2] = system: human platelets in whole blood; experiment: Whole blood impedance platelet aggregation induced by collagen; type: cell-based; details: for Whole blood impedance platelet aggregation induced by 1 μg/ml collagen: 60 minutes at 37° C., baseline 29 ± 7
Protocol: as §1
The methods are described in detail in Abbate R, et al., Amer J Clin Pathol 1986; 86: 91-96. Briefly, the whole blood citrate mixture was diluted 1:1 with 0.5 ml TBS, then swirled gently. The cuvette with the stirring bar was placed in the incubation well and allowed to warm to 37° C. for 5 minutes. Then the sample was transferred to the assay well. An electrode was placed in the sample cuvette. Platelet aggregation was stimulated with 1 μg/ml collagen. Platelet aggregation studies were performed using a Chrono-Log Whole Blood Aggregometer using Aggrolink” software. Platelet aggregability was expressed as the change in electrical impedance and is expressed in ohms.

[3] = system: shear-induced platelet aggregation; experiment: PFA-100 closure time, epinephrine/collagen cartridge; type: cell-based, human; details: for PFA-100 closure time with the epinephrine/collagen cartridge: baseline 201 ± 22
Protocol: as §1
The platelet function analyzer (PFA-100′, Dade Behring, Deerfield, Ill.) is a device that simulates changes in primary hemostasis after injury to a small vessel under flow conditions. Kundu S K, et al., Semin Thromb Hemost 1995; 21(Suppl 2): 106-112. The time required to obtain occlusion of the aperture was digitally recorded as a measure of shear-induced platelet aggregation. Closure time determinations were performed in duplicate.

[4] = system: platelets (agglutination with fibrinogen-coated beads); experiment: Ultegra rapid platelet-function assay (RPFA-ASA); type: cell-based, human; details: baseline 159 ± 27
Protocol: as §1
A rapid platelet-function assay cartridge test (RPFA-ASA, Ultegra® Accumetrics, Inc., San Diego, Calif., USA), using polystyrene beads coated cartridges with lyophilized human fibrinogen-coated microparticles, and propyl gallat served as an agonist. The whole blood citrate mixture was added to the cartridge, and agglutination between platelets and coated beads was recorded. The data mirrored turbidometric platelet aggregation and reflected the degree of platelet prostaglandin blockade. Smith J W, et al., Circulation 1999; 99: 620-625. Ultegra® assays were performed in duplicate. An electronic quality control test was performed on each instrument every day of use prior to performing any subject samples.

P-selectin (CD 62p) = experiment: Whole blood flow cytometry, P-selectin expression; type: cell-based, human; details: for Expression of P-selectin (CD 62p): baseline 9.1 ± 3.8
Protocol: as §1
(§2) The expression of platelet receptors was determined by using the following monoclonal antibodies: CD31 (platelet endothelial cell adhesion molecule (PECAM-1), CD41 (glycoprotein [GP] IIb/IIIa, (IIb (3), CD42b (GP Ib), CD 51/CD61 ((v (3, or vitronectin receptor), CD62p (P-selectin), CD107a (lysosome associated membrane protein-1; LAMP-1), CD 107b (LAMP-2), CD151 (platelet/endothelial tetraspan antigen-3; PETA-3), and PAC-1 for fibrinogen-platelet (PharMingen, San Diego, Calif.). Platelet-leukocyte interactions were assessed by using dual antibodies for a pan-platelet marker (CD 151), together with CD14, a monocyte/macrophage marker. The blood-citrate mixture (50 μl) was diluted with 450 μl Tris buffered saline (TBS) (10 mmol/L Tris, 0.15 mol/L sodium chloride) and mixed by gently inverting an Eppendorf tube 2 times. Five μl of the corresponding antibodies were then added to each solution and the samples were incubated for 30 minutes. After incubation, 400 μl of 2% buffered paraformaldehyde was added for fixation. The samples were analyzed by a Becton Dickinson FACScan flow cytometer set up to measure fluorescent light scatter, as described in Gurbel P A, et al., J Am Coll Cardiol. 1998; 31: 1466-1473. The data were collected in list mode files and then analyzed. P selectin was expressed as percent positive cells as described in Gurbel P A, et al, Am Heart J 2000; 139: 320-328. Other antigens were expressed as log mean fluorescence intensity.

[5] = system: lysosome associated membrane protein -1 (LAMP-1, CD107a); experiment: Whole blood flow cytometry, LAMP-1 expression; type: cell-based, human; details: baseline 8.7 ± 3.2
Protocol: as §1, §2

[6] = system: platelet-leukocyte microparticles (CD151 + CD14); experiment: Whole blood flow cytometry, platelet-leukocyte microparticles; type: cell-based, human; details: for Formation of platelet-leukocyte microparticles (CD151 + CD14): baseline 92.2 ± 19.3
Protocol: as §1, §2

## CC(O)CCC(=O)N(Cc1ccc(-c2ccccc2-c2nnn[nH]2)cc1)[C@H](C(=O)O)C(C)C (stereo partly drawn) [Valeryl 4-hydroxy valsartan, (S)-2{(4-Hydroxy-pentanoyl)-[2′-(1H-tetrazol-5-yl)-biphenyl-4-ylmethyl]amino}-3-methyl-butyric Acid]
[1]; PRP, 5 μM ADP, preincubation with escalating doses 10 nM to 100 μM
  Effect on ADP-induced platelet aggregation (in words): did not have any effect
[1]; drug 10 nM
  Platelet rich plasma aggregation induced by 5 μM ADP: 75 ± 6%
[1]; drug 100 nM
  Platelet rich plasma aggregation induced by 5 μM ADP: 76 ± 8%
[1]; drug 1 μM
  Platelet rich plasma aggregation induced by 5 μM ADP: 77 ± 9%
[1]; drug 10 μM
  Platelet rich plasma aggregation induced by 5 μM ADP: 76 ± 8%
[1]; drug 100 μM
  Platelet rich plasma aggregation induced by 5 μM ADP: 77 ± 9%
[2]; 1 μM collagen as printed in text, within the range of therapeutic activity
  Effect on collagen-induced platelet aggregation in whole blood (in words): inhibited aggregation
[2]; drug 10 nM
  Whole blood impedance platelet aggregation induced by 1 μg/ml collagen: 32 ± 8 ohms
[2]; drug 100 nM
  Whole blood impedance platelet aggregation induced by 1 μg/ml collagen: 31 ± 9 ohms
[2]; drug 1 μM
  Whole blood impedance platelet aggregation induced by 1 μg/ml collagen: 14 ± 6 ohms
[2]; drug 10 μM
  Whole blood impedance platelet aggregation induced by 1 μg/ml collagen: 16 ± 8 ohms
[2]; drug 100 μM
  Whole blood impedance platelet aggregation induced by 1 μg/ml collagen: 17 ± 8 ohms
[3]; cartridge-based analyzers (PFA-100 and Ultegra)
  Antiplatelet properties compared with valsartan (in words): stronger antiplatelet properties than valsartan
[3]; drug 10 nM
  PFA-100 closure time with the epinephrine/collagen cartridge: 179 ± 28 s
[3]; drug 100 nM
  PFA-100 closure time with the epinephrine/collagen cartridge: 190 ± 24 s
[3]; drug 1 μM
  PFA-100 closure time with the epinephrine/collagen cartridge: 259 ± 20 s
[3]; drug 10 μM
  PFA-100 closure time with the epinephrine/collagen cartridge: 257 ± 25 s
[3]; drug 100 μM
  PFA-100 closure time with the epinephrine/collagen cartridge: 232 ± 31 s
[4]; drug 10 nM
  Ultegra Analyzer: 177 ± 23 platelet activation units
[4]; drug 100 nM
  Ultegra Analyzer: 181 ± 31 platelet activation units
[4]; drug 1 μM
  Ultegra Analyzer: 134 ± 29 platelet activation units
[4]; drug 10 μM
  Ultegra Analyzer: 119 ± 38 platelet activation units
[4]; drug 100 μM
  Ultegra Analyzer: 168 ± 35 platelet activation units
P-selectin (CD 62p); drug 10 nM
  Expression of P-selectin (CD 62p): 9.3 ± 4.3 % of cell positivity
P-selectin (CD 62p); drug 100 nM
  Expression of P-selectin (CD 62p): 10.2 ± 5.4 % of cell positivity
P-selectin (CD 62p); drug 1 μM
  Expression of P-selectin (CD 62p): 7.3 ± 3.7 % of cell positivity
P-selectin (CD 62p); drug 10 μM
  Expression of P-selectin (CD 62p): 6.9 ± 4.2 % of cell positivity
P-selectin (CD 62p); drug 100 μM
  Expression of P-selectin (CD 62p): 8.9 ± 3.8 % of cell positivity
P-selectin (CD 62p); whole blood flow cytometry
  Effect on P-selectin on platelet surface (in words): significantly diminished
[5]; drug 10 nM
  Expression of lysosome associated membrane protein -1 (LAMP-1, CD107a): 10.2 ± 3.6 log MFI
[5]; drug 100 nM
  Expression of lysosome associated membrane protein -1 (LAMP-1, CD107a): 9.0 ± 4.0 log MFI
[5]; drug 1 μM
  Expression of lysosome associated membrane protein -1 (LAMP-1, CD107a): 6.6 ± 2.9 log MFI
[5]; drug 10 μM
  Expression of lysosome associated membrane protein -1 (LAMP-1, CD107a): 5.8 ± 3.2 log MFI
[5]; drug 100 μM
  Expression of lysosome associated membrane protein -1 (LAMP-1, CD107a): 8.0 ± 3.4 log MFI
[6]; drug 10 nM
  Formation of platelet-leukocyte microparticles (CD151 + CD14): 99.4 ± 29.7 log MFI
[6]; drug 100 nM
  Formation of platelet-leukocyte microparticles (CD151 + CD14): 94.3 ± 18.7 log MFI
[6]; drug 1 μM
  Formation of platelet-leukocyte microparticles (CD151 + CD14): 90.7 ± 20.5 log MFI
[6]; drug 10 μM
  Formation of platelet-leukocyte microparticles (CD151 + CD14): 89.2 ± 18.7 log MFI
[6]; drug 100 μM
  Formation of platelet-leukocyte microparticles (CD151 + CD14): 95.6 ± 19.9 log MFI
[6]; whole blood flow cytometry
  Effect on platelet-leukocyte microparticles (CD151+14) (in words): not associated with any effect
